The record followed here is patent US7592005B2, “Monoclonal antibody” (Kirin Beer Kabushiki Kaisha, priority 2000, dated 2009).

The data set deals with IM9 cells. Description: Cellular cytotoxicity on human myeloma cell line IM9 (MTS). The conditions noted are these: read-out: IC50, cellular cytotoxicity, free maytansine derivative.

Experimental: In the same manner as in Example 11, the reactivity to the human myeloma cell line IM9 cell (ATCC CCL-159) was investigated. […] Thereafter, a solution of MTS (3-(4,5-dimethylthiazol-2-yl)-5-(3-carboxymethoxyphenyl)-2-(4-sulphophenyl)-2H-tetrazolium, Promega) was added to each well in amounts of 20 μl each, followed by culturing for an additional 2 hours. Subsequently, the absorbance at 490 nm of the surviving cells was assayed using a microplate reader (MTP-300, Corona Electric Co., Ltd.).

The term IC50 denotes the concentration that inhibits the measured activity by half. As to `COc1cc2cc(c1Cl)N(C)C(=O)C[C@H](OC(=O)[C@H](C)N(C)C(=O)CCSSC)[C@]1(C)O[C@H]1[C@H](C)[C@@H]1C[C@@](O)(NC(=O)O1)[C@H](OC)/C=C/C=C(\C)C2` [May-SS-Me], the IC50 is 10 nM.
